In patent US20080220103A1, “METHOD FOR TREATING/CONTROLLING/KILLING FUNGI AND BACTERIA ON LIVING ANIMALS” (priority 2005, published 2008):
≈ marks a conversion by molar mass, not a printed value. Like-named read-outs stand apart in the source and are kept apart here.

Legend:
C. parapsilosis = assay: MIC, CLSI M27-A2; format: cell-based, Candida parapsilosis; settings: Lodderomyces parapsilosis
Method: (§1) Minimum Inhibitory Concentration (MIC): Minimum inhibitory concentrations of synthetic and semisynthetic and natural products against dermatophytes were determined using a modification of the Clinical Laboratory Standards Institute (CLSI, formerly National Committee of Clinical Laboratory Standards, NCCLS) M38A standard method for dermatophytes, while MIC of these agents against Candida species were determined using the CLSI M27-A2 methodology. The method used to determine the MIC against bacteria was based on the CLSI document M7-A7.
(§2) The remaining essential oils were prepared in a dilution range of 0.03-16 μg/ml. For Candida the MIC was read at 24 hours and defined as the lowest concentration to inhibit 50% of fungal growth as compared to the growth control (Table 4).

E. floccosum = assay: Minimum fungicidal concentration (Canton et al.); format: cell-based, Epidermophyton floccosum; settings: Epidermophyton floccosum
Method: (§3) Minimum fungicidal concentration (MFC): The minimum fungicidal concentrations of various agents were determined using the technique described by Canton et al. (Antimicrob Agents Chemother. 2004 8:2477-82). In that method, fungal conidia were collected following growth on potato dextrose agar (PDA) plates and were used to inoculate 96-well plates containing different concentrations of agents. Following incubation at 35° C. for 4 days (for dermatophytes) or 24 hours (for yeast), wells showing no visible growth were cultured to determine the MFC (defined as the lowest concentration of a given agent that kills>99.999% of fungal conidia or spores). The MFC value represents the level of the agent at which spores or conidia were killed.

All dermatophytes [1] = assay: Minimum fungicidal concentration, pooled dermatophytes; format: cell-based, E. floccosum, T. rubrum, T. mentagrophytes
Method: as §3
(§4) In the following Tables, MIC50 and MIC90 are defined as the minimal concentrations of a compound that can inhibit 50% and 90% of the tested organisms, respectively.

C. albicans = assay: MIC, CLSI M27-A2; format: cell-based, Candida albicans
Method: as §1, §2

T. mentagrophytes [2] = assay: MIC, modified CLSI M38A broth dilution; format: cell-based, Trichophyton mentagrophytes; settings: for MIC: Trichophyton mentagrophytes
Method: as §1
(§5) For dermatophytes, serial dilutions of terbinafine, tolnaftate were prepared in a range of 0.004-2 μg/ml, while for miconazole concentrations ranged between 0.015-8 μg/ml. Finally, for essential oils, the concentrations tested were between 0.03-16 μg/ml. The only exception was tea tree oil where dilutions were prepared in a range of 0.0078-4 μg/ml. The MIC was read at 4 days post inoculation and defined as the lowest concentration of an agent to inhibit 80% of fungal growth as compared to the growth control (Table 2).

S. epidermidis = assay: MIC, CLSI M7-A7, Mueller-Hinton; format: cell-based; settings: for MIC: read-out: MIC
Method: as §1
(§6) For bacterial species, the medium used to evaluate the antibacterial activity of agents and essential oils was Mueller-Hinton (Oxoid Ltd., Basingstoke, Hampshire, England). Serial dilutions of miconazole, terbinafine, and tolnaftate were prepared in a range of 0.125-64 μg/ml and serial dilutions of tea tree oil were prepared in a range of 0.0078-4 μg/ml, while those for the rest of the essential oils were prepared in a range 0.031-16 μg/ml.

T. rubrum = assay: Minimum fungicidal concentration (Canton et al.); format: cell-based, Trichophyton rubrum; settings: for MFC: Trichophyton rubrum
Method: as §3

T. mentagrophytes [3] = assay: Minimum fungicidal concentration (Canton et al.); format: cell-based, Trichophyton mentagrophytes; settings: Trichophyton mentagrophytes
Method: as §3

All yeasts = assay: MIC, CLSI M27-A2, pooled yeasts; format: cell-based, C. albicans, C. parapsilosis; settings: n = 12
Method: as §1, §2, §4

All dermatophytes [4] = assay: MIC, modified CLSI M38A, pooled dermatophytes; format: cell-based, E. floccosum, T. rubrum, T. mentagrophytes; settings: n = 18
Method: as §1, §5, §4

S. aureus = assay: MIC, CLSI M7-A7, Mueller-Hinton; format: cell-based, Staphylococcus aureus
Method: as §1, §6

[5] = Candida albicans, C. albicans, n = 6
[6] = Staphylococcus epidermidis, S. epidermidis, n = 6
[7] = Staphylococcus aureus, S. aureus

Work on `Clc1ccc(COC(Cn2ccnc2)c2ccc(Cl)cc2Cl)c(Cl)c1` (centres unmarked) [Miconazole, miconazole] yielded an MIC (C. parapsilosis; C. parapsilosis strain 7629) of 4 µg/mL (≈ 9.61 µM), an MIC (C. parapsilosis; C. parapsilosis strain 7668) of 16 µg/mL (≈ 38.4 µM) and an MIC (C. parapsilosis; C. parapsilosis strain 7672) of 8 µg/mL (≈ 19.2 µM). For the same compound, the MIC (C. parapsilosis; C. parapsilosis strain 7995) was 4 µg/mL (≈ 9.61 µM), the MIC (C. parapsilosis; C. parapsilosis strain 8148) was greater than 16 µg/mL and the MIC (C. parapsilosis; C. parapsilosis strain 8442) was 4 µg/mL (≈ 9.61 µM). The MIC50 (C. parapsilosis; C. parapsilosis, n = 6) was 4 µg/mL (≈ 9.61 µM), the MIC90 (C. parapsilosis; C. parapsilosis, n = 6) was 16 µg/mL (≈ 38.4 µM) and the MFC (E. floccosum; E. floccosum strain 1666, read-out: MFC) was 2 µg/mL (≈ 4.81 µM). The MFC (E. floccosum; E. floccosum strain 1798, read-out: MFC) was 0.5 µg/mL (≈ 1.2 µM), the MFC (E. floccosum; E. floccosum strain 1925, read-out: MFC) was 8 µg/mL (≈ 19.2 µM) and the MFC (E. floccosum; E. floccosum strain 1926, read-out: MFC) was greater than 8 µg/mL. The MFC (E. floccosum; E. floccosum strain 1961, read-out: MFC) was greater than 8 µg/mL, the MFC (E. floccosum; E. floccosum strain 2165, read-out: MFC) was greater than 8 µg/mL and the MFC (E. floccosum; E. floccosum, n = 6, read-out: MFC, row MIC50) was 8 µg/mL (≈ 19.2 µM). It also gave an MFC (E. floccosum; E. floccosum, n = 6, read-out: MFC, row MIC90) greater than 8 µg/mL, an MFC (All dermatophytes [1]; All dermatophytes, n = 18, read-out: MFC, row MIC50) of 8 µg/mL (≈ 19.2 µM) and an MFC (All dermatophytes [1]; All dermatophytes, n = 18, read-out: MFC, row MIC90) greater than 8 µg/mL. The MFC (All dermatophytes [1]; all T. mentagrophytes isolates and the majority of T. rubrum and E. floccosum isolates, read-out: MFC) was no less than 8 µg/mL, the MIC (C. albicans; C. albicans strain 8280 (multi-resistant)) was greater than 16 µg/mL and the MIC (C. albicans; Candida albicans, 24 h, C. albicans strain 1740, 50% inhibition, 24 hours, read-out: MIC) was 1 µg/mL (≈ 2.4 µM). For the same compound, the MIC (C. albicans; Candida albicans, C. albicans strain 2108, read-out: MIC) was 2 µg/mL (≈ 4.81 µM), the MIC (C. albicans; Candida albicans, C. albicans strain 2153, read-out: MIC) was 1 µg/mL (≈ 2.4 µM) and the MIC (C. albicans; Candida albicans, C. albicans strain 8280 (multi-resistant), read-out: MIC) was greater than 16 µg/mL. The MIC (C. albicans; Candida albicans, C. albicans strain 8283, read-out: MIC) was 16 µg/mL (≈ 38.4 µM), the MIC (C. albicans; Candida albicans, C. albicans strain 8364, read-out: MIC) was 2 µg/mL (≈ 4.81 µM) and the MIC (C. albicans; Candida albicans, C. albicans, another isolate, read-out: MIC) was 16 µg/mL (≈ 38.4 µM). The MIC (C. albicans; Candida albicans, C. albicans, four isolates, read-out: MIC) was 1 to 2 µg/mL (≈ 2.4 to 4.81 µM), the MIC50 (C. albicans; [5]) was 2 µg/mL (≈ 4.81 µM) and the MIC90 (C. albicans; [5]) was 16 µg/mL (≈ 38.4 µM). For the same compound, the “MIC Range” value (T. mentagrophytes [2]; T. mentagrophytes, n = 6) was 0.015 to 0.25 µg/mL, the MIC (T. mentagrophytes [2]; T. mentagrophytes strain 1720) was 0.03 µg/mL (≈ 0.0721 µM) and the MIC (T. mentagrophytes [2]; T. mentagrophytes strain 2124) was 0.25 µg/mL (≈ 0.601 µM). It also gave an MIC (T. mentagrophytes [2]; T. mentagrophytes strain 2125) of 0.25 µg/mL (≈ 0.601 µM), an MIC (T. mentagrophytes [2]; T. mentagrophytes strain 2126) of 0.015 µg/mL (≈ 0.036 µM) and an MIC (T. mentagrophytes [2]; T. mentagrophytes strain 2127) of 0.25 µg/mL (≈ 0.601 µM). The MIC (T. mentagrophytes [2]; T. mentagrophytes strain 2128) was 0.125 µg/mL (≈ 0.3 µM), the “MIC Range” value (S. epidermidis; S. epidermidis, n = 6) was 0.5 to 1 µg/mL and the MIC (S. epidermidis; Staphylococcus epidermidis, S. epidermidis strain 8472) was 0.5 µg/mL (≈ 1.2 µM). The MIC (S. epidermidis; Staphylococcus epidermidis, S. epidermidis strain 8473) was 1 µg/mL (≈ 2.4 µM), the MIC (S. epidermidis; Staphylococcus epidermidis, S. epidermidis strain 8474) was 0.5 µg/mL (≈ 1.2 µM) and the MIC (S. epidermidis; Staphylococcus epidermidis, S. epidermidis strain 8475) was 1 µg/mL (≈ 2.4 µM). It also gave an MIC (S. epidermidis; Staphylococcus epidermidis, S. epidermidis strain 8476) of 1 µg/mL (≈ 2.4 µM), an MIC (S. epidermidis; Staphylococcus epidermidis, S. epidermidis strain 8477) of 1 µg/mL (≈ 2.4 µM) and an MIC50 (S. epidermidis; [6]) of 1 µg/mL (≈ 2.4 µM). The MIC90 (S. epidermidis; [6]) was 1 µg/mL (≈ 2.4 µM), the “MFC range (row MIC Range)” value (T. rubrum; T. rubrum, n = 6) was 1 to 8 µg/mL and the MFC (T. rubrum; T. rubrum strain 1967, read-out: MFC) was 8 µg/mL (≈ 19.2 µM). It also gave an MFC (T. rubrum; T. rubrum strain 2098, read-out: MFC) of 4 µg/mL (≈ 9.61 µM), an MFC (T. rubrum; T. rubrum strain 2246, read-out: MFC) of 1 µg/mL (≈ 2.4 µM) and an MFC (T. rubrum; T. rubrum strain 8063, read-out: MFC) of 8 µg/mL (≈ 19.2 µM). For the same compound, the MFC (T. rubrum; T. rubrum strain 8071, read-out: MFC) was 8 µg/mL (≈ 19.2 µM), the MFC (T. rubrum; T. rubrum strain 8092, read-out: MFC) was 8 µg/mL (≈ 19.2 µM) and the MFC (T. rubrum; T. rubrum, n = 6, read-out: MFC, row MIC50) was 8 µg/mL (≈ 19.2 µM). The MFC (T. rubrum; T. rubrum, n = 6, read-out: MFC, row MIC90) was 8 µg/mL (≈ 19.2 µM), the MFC (T. mentagrophytes [3]; T. mentagrophytes strain 2124, read-out: MFC) was greater than 8 µg/mL and the MFC (T. mentagrophytes [3]; T. mentagrophytes strain 2125, read-out: MFC) was greater than 8 µg/mL. For the same compound, the MFC (T. mentagrophytes [3]; T. mentagrophytes strain 2127, read-out: MFC) was greater than 8 µg/mL, the MFC (T. mentagrophytes [3]; T. mentagrophytes strain 2128, read-out: MFC) was greater than 8 µg/mL and the MFC (T. mentagrophytes [3]; T. mentagrophytes, n = 6, read-out: MFC, row MIC50) was greater than 8 µg/mL. It also gave an MFC (T. mentagrophytes [3]; T. mentagrophytes, n = 6, read-out: MFC, row MIC90) greater than 8 µg/mL, an MIC50 (All yeasts) of 4 µg/mL (≈ 9.61 µM) and an MIC90 (All yeasts) greater than 16 µg/mL. The MIC50 (All dermatophytes [4]) was 0.125 µg/mL (≈ 0.3 µM), the MIC90 (All dermatophytes [4]) was 0.25 µg/mL (≈ 0.601 µM) and the “MIC Range” value (All dermatophytes [4]) was 0.015 to 0.25 µg/mL. The MIC (S. aureus; S. aureus strain 733) was 2 µg/mL (≈ 4.81 µM), the MIC (S. aureus; S. aureus strain 734) was 2 µg/mL (≈ 4.81 µM) and the MIC (S. aureus; S. aureus strain 8470) was 2 µg/mL (≈ 4.81 µM). The “MIC Range” value (S. aureus; S. aureus, n = 6) was 2 µg/mL (≈ 4.81 µM), the MIC50 (S. aureus; [7]) was 2 µg/mL (≈ 4.81 µM) and the MIC90 (S. aureus; [7]) was 2 µg/mL (≈ 4.81 µM). For the same compound, the MIC (S. aureus; Staphylococcus aureus, S. aureus strain 730, 80% inhibition, 16 h, read-out: MIC) was 2 µg/mL (≈ 4.81 µM) and the MIC (S. aureus; Staphylococcus aureus, S. aureus strain 732, read-out: MIC) was 2 µg/mL (≈ 4.81 µM).
